The experiment addresses Factor D (Homo sapiens (Human), UniProt P00746). In words: biochemical. It counts as biochemical. Particulars: read-out: IC50.

Sequence of Factor D (P00746 26-253): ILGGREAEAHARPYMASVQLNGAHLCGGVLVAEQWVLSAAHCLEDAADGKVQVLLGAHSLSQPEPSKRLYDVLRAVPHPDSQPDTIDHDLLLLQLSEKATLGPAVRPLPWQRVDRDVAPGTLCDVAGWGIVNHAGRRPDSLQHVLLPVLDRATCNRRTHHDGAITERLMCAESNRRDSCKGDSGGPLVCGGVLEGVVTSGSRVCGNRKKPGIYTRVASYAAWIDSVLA

As usually defined, the IC50 is the concentration needed to halve the response being measured. As for `N#CCOc1ccc2c(c1)c(NC(=O)N1[C@@H]3C[C@@H]3C[C@H]1C(=O)NCc1cccc(Cl)c1F)cn2C(N)=O` [Example 373, 1R,3S,5R)-2-Aza-bicyclo[3.1.0]hexane-2,3-dicarboxylic acid 2-[(1-carbamoyl-5-cyanomethoxy-1H-indol-3-yl)-amide]3-(3-chloro-2-fluoro-benzylamide], the IC50 worked out at 0.001 µM. For `NC(=O)n1cc(NC(=O)N2[C@@H]3C[C@@H]3C[C@H]2C(=O)NCc2cccc(Cl)c2F)c2cc(OCC(=O)O)ccc21` [Example 374, (1-Carbamoyl-3-{[(1R,3S,5R)-3-(3-chloro-2-fluoro-benzylcarbamoyl)-2-aza-bicyclo[3.1.0]hexane-2-carbonyl]-amino}-1H-indol-5-yloxy)-acetic acid] the value was 0.003 µM; for `C[C@@]1(F)C[C@@H](C(=O)NCc2cccc(Cl)c2F)N(C(=O)Nc2cn(C(N)=O)c3ccc(OCC(=O)O)cc23)C1` [Example 375, (1-Carbamoyl-3-{[(2S,4R)-2-(3-chloro-2-fluoro-benzylcarbamoyl)-4-fluoro-4-methyl-pyrrolidine-1-carbonyl]-amino}-1H-indol-5-yloxy)-acetic acid], 0.002 µM; for `NC(=O)n1cc(NC(=O)N2[C@@H]3C[C@@H]3C[C@H]2C(=O)NCc2cccc(Cl)c2F)c2ccc(OCC(=O)O)cc21` [Example 376, (1-Carbamoyl-3-{[(1R,3S,5R)-3-(3-chloro-2-fluoro-benzylcarbamoyl)-2-aza-bicyclo[3.1.0]hexane-2-carbonyl]-amino}-1H-indol-6-yloxy)-acetic acid], 0.247 µM. Turning to `NC(=O)n1cc(NC(=O)N2[C@@H]3C[C@@H]3C[C@H]2C(=O)NCc2cccc(Cl)c2F)c2cc(CC(=O)O)ccc21` [Example 377, (1-Carbamoyl-3-{[(1R,3S,5R)-3-(3-chloro-2-fluoro-benzylcarbamoyl)-2-aza-bicyclo[3.1.0]hexane-2-carbonyl]-amino}-1H-indol-5-yl)-acetic acid], the IC50 was found to be 0.02 µM. As for `NC(=O)n1cc(NC(=O)N2[C@@H]3C[C@@H]3C[C@H]2C(=O)NCc2cccc(Cl)c2F)c2ccc(CC(=O)O)cc21` [Example 378, (1-Carbamoyl-3-{[(1R,3S,5R)-3-(3-chloro-2-fluoro-benzylcarbamoyl)-2-aza-bicyclo[3.1.0]hexane-2-carbonyl]-amino}-1H-indol-6-yl)-acetic acid], the IC50 was found to be 0.024 µM.

Take `NC(=O)n1cc(NC(=O)N2[C@@H]3C[C@@H]3C[C@H]2C(=O)NCc2cccc(Cl)c2F)c2cc(OCCO)ccc21` [Example 379, (1R,3S,5R)-2-aza-bicyclo[3.1.0]hexane-2,3-dicarboxylic acid 2-{[1-carbamoyl-5-(2-hydroxy-ethoxy)-1H-indol-3-yl]-amide}3-(3-chloro-2-fluoro-benzylamide)]: the IC50 stood at 0.005 µM.

On to `NC(=O)n1cc(NC(=O)N2CCS[C@H]2C(=O)NCc2cccc(Cl)c2F)c2cc(OCCO)ccc21` [Example 380, S)-Thiazolidine-2,3-dicarboxylic acid 3-{[1-carbamoyl-5-(2-hydroxy-ethoxy)-1H-indol-3-yl]-amide}2-(3-chloro-2-fluoro-benzylamide], for which the IC50 was found to be 0.017 µM.

As for `NC(=O)n1cc(NC(=O)N2[C@@H]3C[C@@H]3C[C@H]2C(=O)Nc2cccc(OC(F)(F)F)c2)c2cc(OCCO)ccc21` [Example 381, (1R,3S,5R)-2-Aza-bicyclo[3.1.0]hexane-2,3-dicarboxylic acid 2-{[1-carbamoyl-5-(2-hydroxy-ethoxy)-1H-indol-3-yl]-amide}3-[(3-trifluoromethoxy-phenyl)-amide]], the IC50 came to 0.057 µM. Take `C[C@@]1(F)C[C@@H](C(=O)NCc2cccc(Cl)c2F)N(C(=O)Nc2cn(C(N)=O)c3ccc(OCCO)cc23)C1` [Example 383, 2S,4R)-4-Fluoro-4-methyl-pyrrolidine-1,2-dicarboxylic acid 1-{[1-carbamoyl-5-(2-hydroxy-ethoxy)-1H-indol-3-yl]-amide}2-(3-chloro-2-fluoro-benzylamide]: the IC50 was found to be 0.004 µM. For `NC(=O)n1cc(NC(=O)N2[C@@H]3C[C@@H]3C[C@H]2C(=O)NCc2cccc(Cl)c2F)c2ccc(CCO)cc21` [Example 384, 1R,3S,5R)-2-Aza-bicyclo[3.1.0]hexane-2,3-dicarboxylic acid 2-{[1-carbamoyl-6-(2-hydroxy-ethyl)-1H-indol-3-yl]-amide}3-(3-chloro-2-fluoro-benzylamide] the value was 0.032 µM; for `NC(=O)n1cc(NC(=O)N2[C@@H]3C[C@@H]3C[C@H]2C(=O)NCc2cccc(Cl)c2F)c2cc(CCO)ccc21` [Example 385, 1R,3S,5R)-2-Aza-bicyclo[3.1.0]hexane-2,3-dicarboxylic acid 2-{[1-carbamoyl-5-(2-hydroxy-ethyl)-1H-indol-3-yl]-amide}3-(3-chloro-2-fluoro-benzylamide], 0.007 µM. For `CC(C)(O)COc1ccc2c(c1)c(NC(=O)N1C3CC3C[C@H]1C(=O)NCc1cccc(Cl)c1F)cn2C(N)=O` (stereo partly drawn) [Example 386, 1R,3S,5R)-2-Aza-bicyclo[3.1.0]hexane-2,3-dicarboxylic acid 2-{[1-carbamoyl-5-(2-hydroxy-2-methyl-propoxy)-1H-indol-3-yl]-amide}3-(3-chloro-2-fluoro-benzylamide] the value was 0.008 µM.

Regarding `CN(C)CCOc1ccc2c(c1)c(NC(=O)N1[C@@H]3C[C@@H]3C[C@H]1C(=O)NCc1cccc(Cl)c1F)cn2C(N)=O` [Example 387, 1R,3S,5R)-2-Aza-bicyclo[3.1.0]hexane-2,3-dicarboxylic acid 2-{[1-carbamoyl-5-(2-dimethylamino-ethoxy)-1H-indol-3-yl]-amide}3-(3-chloro-2-fluoro-benzylamide], the IC50 turned out to be 0.057 µM. `NC(=O)n1cc(NC(=O)N2[C@@H]3C[C@@H]3C[C@H]2C(=O)NCc2cccc(Cl)c2F)c2cc(OCCN3CCCC3)ccc21` [Example 388, 1R,3S,5R)-2-Aza-bicyclo[3.1.0]hexane-2,3-dicarboxylic acid 2-{[1-carbamoyl-5-(2-pyrrolidin-1-yl-ethoxy)-1H-indol-3-yl]-amide}3-(3-chloro-2-fluoro-benzylamide]: the IC50 came out at 0.028 µM. For the molecule `NC(=O)n1cc(NC(=O)N2[C@@H]3C[C@@H]3C[C@H]2C(=O)NCc2cccc(Cl)c2F)c2cc(OCCn3ccnc3)ccc21` [Example 389, 1R,3S,5R)-2-Aza-bicyclo[3.1.0]hexane-2,3-dicarboxylic acid 2-{[1-carbamoyl-5-(2-imidazol-1-yl-ethoxy)-1H-indol-3-yl]-amide}3-(3-chloro-2-fluoro-benzylamide], the IC50 is 0.03 µM. The value for `CC(C)(C)OC(=O)COc1ccc2c(c1)c(NC(=O)N1[C@@H]3C[C@@H]3C[C@H]1C(=O)NCc1ccccc1F)cn2C(N)=O` [Example 390, (1-Carbamoyl-3-{[(1R,3S,5R)-3-(2-fluoro-benzylcarbamoyl)-2-aza-bicyclo[3.1.0]hexane-2-carbonyl]-amino}-1H-indol-5-yloxy)-acetic acid tert-butyl ester] was 0.038 µM. The value for `NC(=O)n1cc(NC(=O)N2[C@@H]3C[C@@H]3C[C@H]2C(=O)NCc2ccccc2F)c2cc(OCC(=O)O)ccc21` [Example 391, (1-Carbamoyl-3-{[(1R,3S,5R)-3-(2-fluoro-benzylcarbamoyl)-2-aza-bicyclo[3.1.0]hexane-2-carbonyl]-amino}-1H-indol-5-yloxy)-acetic acid] was 0.03 µM; that for `NC(=O)n1cc(NC(=O)N2C3CC3C[C@H]2C(=O)NCc2cccc(Cl)c2F)c2ccc(O)cc21` (stereo partly drawn) [Example 392, 1R,3S,5R)-2-Aza-bicyclo[3.1.0]hexane-2,3-dicarboxylic acid 2-[(1-carbamoyl-6-hydroxy-1H-indol-3-yl)-amide]3-(3-chloro-2-fluoro-benzylamide] was 0.007 µM. `NC(=O)n1cc(NC(=O)N2C[C@H](F)C[C@H]2C(=O)NCc2cccc(Cl)c2F)c2ccc(O)cc21` [Example 393, 2S,4R)-4-Fluoro-pyrrolidine-1,2-dicarboxylic acid 1-[(1-carbamoyl-6-hydroxy-1H-indol-3-yl)-amide]2-(3-chloro-2-fluoro-benzylamide]: the IC50 is 0.007 µM.

`COC(=O)COc1ccc2c(NC(=O)N3[C@@H]4C[C@@H]4C[C@H]3C(=O)NCc3cccc(Cl)c3F)cn(C(N)=O)c2c1` [Example 394, (1-Carbamoyl-3-{[(1R,3S,5R)-3-(3-chloro-2-fluoro-benzylcarbamoyl)-2-aza-bicyclo[3.1.0]hexane-2-carbonyl]-amino}-1H-indol-6-yloxy)-acetic acid methyl ester]: the IC50 worked out at 0.07 µM. The value for `NC(=O)n1cc(NC(=O)N2C3CC3C[C@H]2C(=O)NCc2cccc(Cl)c2F)c2ccc(OCCO)cc21` (stereo partly drawn) [Example 395, 1R,3S,5R)-2-Aza-bicyclo[3.1.0]hexane-2,3-dicarboxylic acid 2-{[1-carbamoyl-6-(2-hydroxy-ethoxy)-1H-indol-3-yl]-amide}3-(3-chloro-2-fluoro-benzylamide] was 0.025 µM. For `NC(=O)n1cc(NC(=O)N2C[C@@H](N)C[C@H]2C(=O)Nc2cccc(OC(F)(F)F)c2)c2ccc(OCc3ccccc3)cc21` [Example 398, (2S,4S)-4-Amino-pyrrolidine-1,2-dicarboxylic acid 1-[(6-benzyloxy-1-carbamoyl-1H-indol-3-yl)-amide]2-[(3-trifluoromethoxy-phenyl)-amide]] the value was 3.05 µM. For `NC(=O)n1cc(NC(=O)N2CCNC[C@H]2C(=O)NCc2cccc(Cl)c2)c2ccccc21` [Example 399, S)-piperazine-1,2-dicarboxylic acid 1-[(1-carbamoyl-1H-indol-3-yl)-amide]2-(3-chloro-benzylamide] the value was 1.6 µM; for `NCc1ccc(-c2cccc(NC(=O)[C@@H]3CCCN3C(=O)Nc3cn(C(N)=O)c4ccccc34)c2)cc1` [Example 400, (S)-Pyrrolidine-1,2-dicarboxylic acid 2-[(4′-aminomethyl-biphenyl-3-yl)-amide]1-[(1-carbamoyl-1H-indol-3-yl)-amide]], 3.95 µM. `NCc1ccc(-c2cccc(NC(=O)[C@@H]3CCCN3C(=O)Nc3cn(C(N)=O)c4ccccc34)c2)c(F)c1` [Example 401, (S)-Pyrrolidine-1,2-dicarboxylic acid 2-[(4′-aminomethyl-2′-fluoro-biphenyl-3-yl)-amide]1-[(1-carbamoyl-1H-indol-3-yl)-amide]]: the IC50 is 1.05 µM.

Values taken from patent US9085555B2, “Complement pathway modulators and uses thereof” (priority 2011, dated 2015).
